Source: ChEMBL document CHEMBL1145419, “Structural insight into the pharmacophore pocket of human glutamate carboxypeptidase II” (J Med Chem, 2007)

These compounds were tested against Glutamate carboxypeptidase 2 (Homo sapiens, UniProt Q04609).
Sequence of Glutamate carboxypeptidase 2 (Q04609 whole entry): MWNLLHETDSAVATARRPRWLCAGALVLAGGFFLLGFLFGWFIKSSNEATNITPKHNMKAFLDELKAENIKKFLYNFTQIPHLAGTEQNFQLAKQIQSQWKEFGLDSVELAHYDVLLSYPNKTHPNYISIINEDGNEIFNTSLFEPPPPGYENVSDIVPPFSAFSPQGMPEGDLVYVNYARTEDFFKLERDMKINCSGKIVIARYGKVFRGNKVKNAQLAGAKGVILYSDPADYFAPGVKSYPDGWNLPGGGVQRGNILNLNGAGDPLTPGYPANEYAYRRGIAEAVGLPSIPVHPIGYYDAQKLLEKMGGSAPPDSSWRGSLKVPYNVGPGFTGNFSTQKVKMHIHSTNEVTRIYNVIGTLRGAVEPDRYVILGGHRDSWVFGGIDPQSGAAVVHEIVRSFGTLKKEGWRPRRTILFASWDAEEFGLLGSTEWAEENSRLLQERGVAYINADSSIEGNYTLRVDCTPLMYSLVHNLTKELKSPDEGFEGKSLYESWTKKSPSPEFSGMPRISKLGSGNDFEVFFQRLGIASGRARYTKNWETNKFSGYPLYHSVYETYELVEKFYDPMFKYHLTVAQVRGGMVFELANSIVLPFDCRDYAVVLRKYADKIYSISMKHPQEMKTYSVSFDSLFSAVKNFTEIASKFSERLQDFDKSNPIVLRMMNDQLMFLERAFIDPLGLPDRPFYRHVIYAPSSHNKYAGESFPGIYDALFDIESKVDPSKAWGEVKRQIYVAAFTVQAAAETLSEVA
Description: Inhibition of human recombinant glutamate carboxypeptidase 2 by radioenzymatic assay

| Structure (SMILES) | IC50 [µM] |
| --- | --- |
| N[C@@H](CCC(=O)O)C(=O)O [GLUTAMIC ACID] | 428 |
| N[C@@H](COP(=O)(O)O)C(=O)O [DEXFOSFOSERINE] | 523 |
| N[C@@H](Cn1ccc(=O)[nH]c1=O)C(=O)O [(S)-WILLARDIINE] | 67 |
| N[C@@H](Cn1oc(=O)[nH]c1=O)C(=O)O [QUISQUALATE] | 9.5 |
